Results as given in patent US11111247B2, “Pyrazolopyrimidine compounds and uses thereof” (Incyte Corporation, priority 2018, dated 2021).
pIC50: −log10 of the molar value. Like-named read-outs stand apart in the source and are kept apart here.

Tests used:
FGFR2 (P) = FGFR2 (P) (Homo sapiens (Human), UniProt P21802); test: FGFR Enzymatic Assay, FGFR2 phosphorylated; conditions: phosphorylated enzyme, ATP near or below Km; for pIC50: read-out: FGFR2 (P) IC50
FGFR2 = FGFR2 (Homo sapiens, UniProt P21802); test: pFGFR2 Functional Cell HTRF Assay (KATOIII cells); type: cell-based
FGFR2, sequence (P21802 22-821 limits assumed): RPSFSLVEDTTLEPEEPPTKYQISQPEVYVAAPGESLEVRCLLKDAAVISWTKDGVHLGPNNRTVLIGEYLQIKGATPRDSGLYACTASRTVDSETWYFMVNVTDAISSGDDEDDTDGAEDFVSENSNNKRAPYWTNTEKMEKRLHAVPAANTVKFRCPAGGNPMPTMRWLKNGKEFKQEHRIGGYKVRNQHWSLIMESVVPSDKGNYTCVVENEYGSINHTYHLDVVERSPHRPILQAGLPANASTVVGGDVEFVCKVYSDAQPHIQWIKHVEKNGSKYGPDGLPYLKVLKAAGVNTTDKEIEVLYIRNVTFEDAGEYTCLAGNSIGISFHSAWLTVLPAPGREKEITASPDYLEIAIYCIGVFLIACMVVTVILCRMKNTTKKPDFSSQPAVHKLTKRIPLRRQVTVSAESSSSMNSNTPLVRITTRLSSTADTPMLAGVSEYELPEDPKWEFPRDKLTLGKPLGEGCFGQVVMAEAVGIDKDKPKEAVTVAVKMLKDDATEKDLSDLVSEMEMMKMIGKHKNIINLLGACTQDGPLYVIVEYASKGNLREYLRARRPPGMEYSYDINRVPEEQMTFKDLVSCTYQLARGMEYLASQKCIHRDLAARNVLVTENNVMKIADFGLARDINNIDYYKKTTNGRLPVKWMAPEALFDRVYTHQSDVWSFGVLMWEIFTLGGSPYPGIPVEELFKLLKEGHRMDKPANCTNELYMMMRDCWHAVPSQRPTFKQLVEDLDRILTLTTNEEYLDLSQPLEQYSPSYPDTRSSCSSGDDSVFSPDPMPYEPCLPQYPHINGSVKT
Experimental: To measure phosphorylated Fibroblast Growth Factor Receptor 2 (FGFR2), KATOIII cells (Human Gastric Carcinoma) were purchased from ATCC and maintained in Iscove's with 20% FBS (Gibco/Life Technologies). For the pFGFR2 assay, KATOIII cells were plated overnight in 5% FBS and Iscove's medium at 5×10^4 cells/well into Corning 96-well flat-bottom tissue culture treated plates. The next morning, 50 μl of fresh media with 0.5% FBS was incubated in the presence or absence of a concentration range of test compounds also at 50 μl, for 1 hour at 37° C., 5% CO2. Cell were washed with PBS, and lysed with Cell Signaling Lysis Buffer with standard Protease inhibitors for 45 min at room temperature. 4 μl total of Cis Bio Anti […] together were added to the lysate and mixed well (following directions of the kit). 16 μl was then transferred to 384 well Greiner white plates and stored at 4° C. overnight in the dark. Plates were read on the Pherastar plate reader at 665 nm and 620 nm wavelengths. IC50 determination was performed by fitting the curve of inhibitor percent inhibition versus the log of the inhibitor concentration using the GraphPad Prism 5.0 software. […] NT=Not tested.

FGFR2 (UP) = FGFR2 (UP) (Homo sapiens (Human), UniProt P21802); test: FGFR Enzymatic Assay, FGFR2 un-phosphorylated
FGFR2 (UP), sequence (P21802 22-821): as the sequence (P21802 22-821 limits assumed) above
Experimental: (§1) The inhibitor potency of the exemplified compounds was determined in an enzyme discontinuous assay that measures peptide phosphorylation using FRET measurements to detect product formation. Inhibitors were serially diluted in DMSO and a volume of 0.2 μL was transferred to the wells of a 384-well plate. For the isoforms of FGFR (−1, −2, −3 wild-type and mutant isoforms, −4) including phosphorylated (P) and un-phosphorylated (UP) proteins, a 5 μL/well volume of enzyme diluted in assay buffer (50 mM HEPES, 10 mM MgCl2, 1 mM EGTA, 0.01% Tween-20, 5 mM DTT, pH 7.5) was added to the plate and pre-incubated with inhibitor for 5 to 15 minutes at ambient temperature. Appropriate controls (enzyme blank and enzyme with no inhibitor) were included on the plate. The reaction was initiated by the addition of a 5 μL/well volume containing both biotinylated [sequence] […] The plate was allowed to equilibrate for −10 minutes at ambient temperature before scanning on a PheraStar plate reader (BMG Labtech) instrument.
(§2) Either GraphPad prism or XLfit was used to analyze the data. The IC50 values were derived by fitting the data to a four parameter logistic equation producing a sigmoidal dose-response curve with a variable Hill coefficient. Prism equation: Y=Bottom+(Top−Bottom)/(1+10^((LogIC50−X)*Hill slope)); XLfit equation: Y=(A+((B−A)/(1+((X/C)^D)))) where X is the logarithm of inhibitor concentration and Y is the response.

ALK2 (aa 147-end) = ALK2 (aa 147-end) (Homo sapiens (Human), UniProt Q04771); test: ALK2 HTRF Assay; type: biochemical
ALK2 (aa 147-end), sequence (Q04771 147-509): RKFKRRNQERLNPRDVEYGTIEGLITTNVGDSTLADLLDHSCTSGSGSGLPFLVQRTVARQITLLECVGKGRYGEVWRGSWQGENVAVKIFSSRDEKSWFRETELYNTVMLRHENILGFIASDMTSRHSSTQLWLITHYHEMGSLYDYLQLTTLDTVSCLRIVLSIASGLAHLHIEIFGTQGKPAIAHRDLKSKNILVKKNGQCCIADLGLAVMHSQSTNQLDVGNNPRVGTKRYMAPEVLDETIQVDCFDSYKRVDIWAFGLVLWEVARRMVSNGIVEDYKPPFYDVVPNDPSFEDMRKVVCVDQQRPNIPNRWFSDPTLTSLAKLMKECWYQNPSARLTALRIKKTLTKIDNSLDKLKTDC

ALK2 = ALK2 (Homo sapiens (Human), UniProt Q04771); test: ALK2 Cellular Assay (phospho SMAD1 HTRF, BMP-7 stimulated HeLa cells); type: cell-based; conditions: HeLa cells, 200 ng/ml BMP-7, Phospho SMAD1 (S463/S465) HTRF; read-out: ALK2 Cellular Assay PSMAD
ALK2, sequence (Q04771 21-509): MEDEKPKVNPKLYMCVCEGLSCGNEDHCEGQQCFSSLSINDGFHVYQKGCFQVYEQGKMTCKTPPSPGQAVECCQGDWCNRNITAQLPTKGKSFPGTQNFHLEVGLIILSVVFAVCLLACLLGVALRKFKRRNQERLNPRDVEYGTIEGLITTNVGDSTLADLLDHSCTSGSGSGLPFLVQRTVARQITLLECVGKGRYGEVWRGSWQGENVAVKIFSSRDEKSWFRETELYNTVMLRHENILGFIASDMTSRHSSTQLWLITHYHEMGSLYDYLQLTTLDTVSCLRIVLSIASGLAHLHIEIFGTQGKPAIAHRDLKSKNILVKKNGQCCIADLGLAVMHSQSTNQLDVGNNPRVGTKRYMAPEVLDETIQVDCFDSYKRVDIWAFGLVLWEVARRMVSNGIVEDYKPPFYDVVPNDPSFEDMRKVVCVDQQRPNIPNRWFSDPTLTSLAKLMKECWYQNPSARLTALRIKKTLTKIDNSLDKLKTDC
In short: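 HeLa cells pre-treated with compound (highest final 3 μM) for 60 min at 37° C, then stimulated with 200 ng/ml BMP-7 for 30 min. Phospho-SMAD1 (S463/S465) quantified by HTRF after overnight room-temperature incubation.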

FGFR1 (UP) = FGFR1 (UP) (Homo sapiens (Human), UniProt P11362); test: FGFR Enzymatic Assay, FGFR1 un-phosphorylated
FGFR1 (UP), sequence (P11362 22-822): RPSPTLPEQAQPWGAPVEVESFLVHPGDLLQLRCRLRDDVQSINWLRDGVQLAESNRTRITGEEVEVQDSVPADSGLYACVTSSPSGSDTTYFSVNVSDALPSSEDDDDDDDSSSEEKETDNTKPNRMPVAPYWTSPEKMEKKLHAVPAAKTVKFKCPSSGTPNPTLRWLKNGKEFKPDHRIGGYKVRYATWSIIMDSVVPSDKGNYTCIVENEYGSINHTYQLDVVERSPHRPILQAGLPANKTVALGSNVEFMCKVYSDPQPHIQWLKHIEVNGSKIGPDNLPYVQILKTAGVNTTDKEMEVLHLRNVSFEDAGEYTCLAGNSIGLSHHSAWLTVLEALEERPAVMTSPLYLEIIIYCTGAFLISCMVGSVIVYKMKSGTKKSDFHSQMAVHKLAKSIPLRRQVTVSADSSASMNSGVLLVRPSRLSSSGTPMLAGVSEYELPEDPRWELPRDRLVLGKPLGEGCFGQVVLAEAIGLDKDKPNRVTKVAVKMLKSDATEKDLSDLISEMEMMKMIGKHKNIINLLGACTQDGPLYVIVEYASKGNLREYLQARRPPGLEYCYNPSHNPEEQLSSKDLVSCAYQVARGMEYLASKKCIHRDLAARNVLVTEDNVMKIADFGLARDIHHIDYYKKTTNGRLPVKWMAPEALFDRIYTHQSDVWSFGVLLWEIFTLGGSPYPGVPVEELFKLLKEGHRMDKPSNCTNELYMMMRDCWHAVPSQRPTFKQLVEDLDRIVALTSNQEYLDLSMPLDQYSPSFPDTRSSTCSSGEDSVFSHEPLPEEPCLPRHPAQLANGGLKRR

FGFR3 (UP) = FGFR3 (UP) (Homo sapiens (Human), UniProt P22607); test: FGFR Enzymatic Assay, FGFR3 un-phosphorylated
FGFR3 (UP), sequence (P22607 23-806): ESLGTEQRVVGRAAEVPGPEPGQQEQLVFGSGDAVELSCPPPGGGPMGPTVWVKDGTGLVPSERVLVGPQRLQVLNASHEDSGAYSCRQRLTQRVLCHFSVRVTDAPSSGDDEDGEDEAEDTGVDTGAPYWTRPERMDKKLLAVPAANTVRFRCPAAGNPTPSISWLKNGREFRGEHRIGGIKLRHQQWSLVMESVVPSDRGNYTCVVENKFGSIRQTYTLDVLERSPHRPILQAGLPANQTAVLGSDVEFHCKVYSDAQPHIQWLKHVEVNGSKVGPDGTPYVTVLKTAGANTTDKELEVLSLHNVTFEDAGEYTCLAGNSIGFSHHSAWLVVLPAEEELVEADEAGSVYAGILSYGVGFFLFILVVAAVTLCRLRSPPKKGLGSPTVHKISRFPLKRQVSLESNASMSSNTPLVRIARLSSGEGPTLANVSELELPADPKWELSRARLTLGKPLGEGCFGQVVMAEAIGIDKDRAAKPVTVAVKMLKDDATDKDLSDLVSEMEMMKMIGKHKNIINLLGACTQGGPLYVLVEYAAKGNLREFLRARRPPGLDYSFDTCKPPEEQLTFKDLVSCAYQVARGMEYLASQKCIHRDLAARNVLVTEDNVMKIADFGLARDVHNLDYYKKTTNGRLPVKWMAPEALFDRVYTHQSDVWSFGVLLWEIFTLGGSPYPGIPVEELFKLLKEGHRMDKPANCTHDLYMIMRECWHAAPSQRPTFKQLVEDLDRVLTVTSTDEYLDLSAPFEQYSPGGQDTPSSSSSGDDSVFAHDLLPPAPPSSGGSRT
Experimental: as §1, §2

FGFR3 = FGFR3 (Homo sapiens, UniProt P22607); test: pFGFR3 Functional Cell HTRF Assay (BAF3-TEL-FGFR3 cells); type: cell-based; conditions: 2 hours
FGFR3, sequence (P22607 23-806 limits assumed): as the sequence (P22607 23-806) above
Experimental: To measure phosphorylated Fibroblast Growth Factor Receptor 1 and 3 (FGF1 and FGFR3), in house stable cell lines BAF3-TEL-FGFR1 or BAF3-TEL-FGFR3 were maintained in RPMI with 10% FBS and 1 μg/ml puromycin (Gibco/Life Technologies). […] The plates were gently shaken (100 rpm) for 2 minutes at room temperature to mix well and incubated for 2 hours in a single layer at 37° C., 5% CO2. 4 μl/well of 1/25 dilution of lysis buffer #3 (Cis Bio) was added with standard Protease inhibitors and shaken at 200 rpm at room temperature for 20 minutes. 4 μl total of the Cis Bio Tb-pFGFR Ab (10 ng) and d2-FGFR3 (1 ng) together were added to the lysate and mixed well. Plates were sealed and incubated at room temperature overnight in the dark. […] IC50 determination was performed by fitting the curve of inhibitor percent inhibition versus the log of the inhibitor concentration using the GraphPad Prism 5.0 software.

RT112 cells = test: Luminescent Viability Assay (LVA, FGFR3); type: cell-based; conditions: Homo sapiens, RT-112, 72 h, 3 days, CellTiter-Glo
Experimental: RT112 cells were purchased from ATCC (Manassas, Va.) and maintained in RPMI, 10% FBS (Gibco/Life Technologies). To measure the effect of test compounds on the viability of cells, the cells were plated with RPMI 10% FBS (5×10^3 cells/well/in 50 μL) into black 96-well Greiner polystyrene in the presence or absence of 50 μl of a concentration range of test compounds. After 3 days, 100 μl of CellTiter-Glo Reagent (Promega) was added. Luminescence was read with a TopCount (PerkinElmer). IC50 determination was performed by fitting the curve of percent inhibition versus the log of the inhibitor concentration using the GraphPad Prism 5.0 software.

[1] = 1 hour, read-out: FGFR2 HTRF IC50
[2] = read-out: FGFR2 (UP) IC50, un-phosphorylated enzyme, ATP near or below Km
[3] = read-out: ALK2 3 μM IC50, 3 uM ATP
[4] = read-out: ALK2 100 μM IC50, 100 uM ATP
[5] = read-out: FGFR1 (UP) IC50, un-phosphorylated enzyme, ATP near or below Km
[6] = read-out: FGFR3 (UP) IC50, un-phosphorylated enzyme, ATP near or below Km

FGFR2 (P), sequence (P21802 22-821): as the sequence (P21802 22-821 limits assumed) above

SMILES | pIC50 (FGFR2 (P)) | pIC50 (ALK2 (aa 147-end); ALK2 3 μM IC50, 3 uM ATP) | pIC50 (ALK2 (aa 147-end); ALK2 100 μM IC50, 100 uM ATP) | pIC50 (FGFR1 (UP); [5]) | pIC50 (FGFR1 (UP)) | pIC50 (FGFR3 (UP); [6]) | pIC50 (FGFR3) | pIC50 (RT112 cells) | other results
CN1CC2CCC(C1=O)N2c1ncc2[nH]nc(-c3cnn(C4CCC4)c3)c2n1 (single isomer, unassigned) [Example 64, 8-(3-(1-Cyclobutyl-1H-pyrazol-4-yl)-1H-pyrazolo[4,3-d]pyrimidin-5-yl)-3-methyl-3,8-diazabicyclo[3.2.1]octan-2-one] | > 7.00 | 6.30 to 7.00 | 5.70 to 6.30 |  |  |  |  |  | pIC50 (FGFR2; [1]): > 7.00; pIC50 (FGFR2 (UP); [2]): > 7.00
CN1CC2CCC(C1=O)N2c1ncc2[nH]nc(-c3cnn(C4CC4)c3)c2n1 (single isomer, unassigned) [Example 66, 8-(3-(1-Cyclopropyl-1H-pyrazol-4-yl)-1H-pyrazolo[4,3-d]pyrimidin-5-yl)-3-methyl-3,8-diazabicyclo[3.2.1]octan-2-one] |  |  |  |  |  |  |  |  | pIC50 (FGFR2; read-out: FGFR2 HTRF IC50, 1 hour): > 7.00
COC(=O)N1C[C@@H](C)N(c2ncc3[nH]nc(-c4ccc(N5CCO[C@H](C)C5)nc4)c3n2)[C@@H](C)C1 [Example 32, Methyl (3R,5S)-3,5-dimethyl-4-(3-(6-((R)-2-methylmorpholino)pyridin-3-yl)-1H-pyrazolo[4,3-d]pyrimidin-5-yl)piperazine-1-carboxylate] |  |  |  | < 5.70 |  |  |  |  | pIC50 (FGFR2 (UP)): 5.70 to 6.30; pIC50 (ALK2): 6.30 to 7.00; pIC50 (ALK2 (aa 147-end); ALK2 1 mM IC50, 1 mM ATP): 6.30 to 7.00; pIC50 (ALK2 (aa 147-end); [3]): > 7.00; pIC50 (ALK2 (aa 147-end); [4]): > 7.00; pIC50 (FGFR3 (UP)): 6.30 to 7.00
COC(=O)N1C[C@@H](C)N(c2ncc3[nH]nc(-c4ccc(N5CCN(C)[C@H](C)C5)nc4)c3n2)[C@@H](C)C1 [Example 33, Methyl (3R,5S)-4-(3-(6-((R)-3,4-dimethylpiperazin-1-yl)pyridin-3-yl)-1H-pyrazolo[4,3-d]pyrimidin-5-yl)-3,5-dimethylpiperazine-1-carboxylate] |  |  |  |  | 6.30 to 7.00 | > 7.00 |  |  | pIC50 (FGFR2 (UP)): 6.30 to 7.00; pIC50 (ALK2): > 7.00; pIC50 (ALK2 (aa 147-end); [3]): > 7.00; pIC50 (ALK2 (aa 147-end); [4]): > 7.00; pIC50 (ALK2 (aa 147-end); read-out: ALK2 1 mM IC50, 1 mM ATP): > 7.00
CCn1cc(-c2n[nH]c3cnc(N4C5CCC4C(=O)N(C)C5)nc23)cn1 (stereo not shown) [Example 61, 8-(3-(1-Ethyl-1H-pyrazol-4-yl)-1H-pyrazolo[4,3-d]pyrimidin-5-yl)-3-methyl-3,8-diazabicyclo[3.2.1]octan-2-one] | > 7.00 | 5.70 to 6.30 | 5.70 to 6.30 |  | 6.30 to 7.00 | > 7.00 | > 7.00 | 6.30 to 7.00 | 
CC(C)n1cc(-c2n[nH]c3cnc(N4C5CCC4C(=O)N(C)C5)nc23)cn1 (stereo not shown) [Example 62, 8-(3-(1-Isopropyl-1H-pyrazol-4-yl)-1H-pyrazolo[4,3-d]pyrimidin-5-yl)-3-methyl-3,8-diazabicyclo[3.2.1]octan-2-one] | > 7.00 |  |  |  | 6.30 to 7.00 | > 7.00 | 6.30 to 7.00 | 6.30 to 7.00 | 
CN1CC2CCC(C1=O)N2c1ncc2[nH]nc(-c3cnn(CC(F)(F)F)c3)c2n1 (stereo not shown) [Example 67, 3-Methyl-8-(3-(1-(2,2,2-trifluoroethyl)-1H-pyrazol-4-yl)-1H-pyrazolo[4,3-d]pyrimidin-5-yl)-3,8-diazabicyclo[3.2.1]octan-2-one] |  |  |  |  | 6.30 to 7.00 | > 7.00 | 6.30 to 7.00 |  | IC50 (FGFR2 (P); FGFR2 (P) IC50 (nM)): 100 to 500 nM
Cc1cc(-n2cc(-c3n[nH]c4cnc(N5C6CCC5C(=O)N(C)C6)nc34)cn2)ccn1 (stereo not shown) [Example 71, 3-Methyl-8-(3-(1-(2-methylpyridin-4-yl)-1H-pyrazol-4-yl)-1H-pyrazolo[4,3-d]pyrimidin-5-yl)-3,8-diazabicyclo[3.2.1]octan-2-one] | > 7.00 | 5.70 to 6.30 | 5.70 to 6.30 | > 7.00 |  | > 7.00 | > 7.00 | > 7.00 | pIC50 (FGFR2; [1]): > 7.00
CN(C)C(=O)c1ccc(-n2cc(-c3n[nH]c4cnc(N5C6CCC5C(=O)N(C)C6)nc34)cn2)cc1 (stereo not shown) [Example 79, N,N-Dimethyl-4-(4-(5-(3-methyl-2-oxo-3,8-diazabicyclo[3.2.1]octan-8-yl)-1H-pyrazolo[4,3-d]pyrimidin-3-yl)-1H-pyrazol-1-yl)benzamide] | > 7.00 | 6.30 to 7.00 | 5.70 to 6.30 | > 7.00 |  | > 7.00 | > 7.00 |  | pIC50 (FGFR2 (UP); [2]): > 7.00
CNC(=O)c1ccc(-n2cc(-c3n[nH]c4cnc(N5C6CCC5C(=O)N(C)C6)nc34)cn2)cc1 (stereo not shown) [Example 80, N-Methyl-4-(4-(5-(3-methyl-2-oxo-3,8-diazabicyclo[3.2.1]octan-8-yl)-1H-pyrazolo[4,3-d]pyrimidin-3-yl)-1H-pyrazol-1-yl)benzamide] | > 7.00 |  |  | > 7.00 |  | > 7.00 |  | 5.70 to 6.30 | pIC50 (FGFR2 (UP); [2]): > 7.00
CNC(=O)c1ccc(-n2cc(-c3n[nH]c4cnc(N5C6CCC5C(=O)N(C)C6)nc34)cn2)cc1F (stereo not shown) [Example 81, 2-Fluoro-N-methyl-4-(4-(5-(3-methyl-2-oxo-3,8-diazabicyclo[3.2.1]octan-8-yl)-1H-pyrazolo[4,3-d]pyrimidin-3-yl)-1H-pyrazol-1-yl)benzamide] | > 7.00 | 5.70 to 6.30 | 5.70 to 6.30 | > 7.00 |  | > 7.00 | > 7.00 | > 7.00 | pIC50 (FGFR2; [1]): > 7.00
CNC(=O)c1ccc(-n2cc(-c3n[nH]c4cnc(N5C6CCC5C(=O)N(C)C6)nc34)cn2)cn1 (stereo not shown) [Example 82, N-Methyl-5-(4-(5-(3-methyl-2-oxo-3,8-diazabicyclo[3.2.1]octan-8-yl)-1H-pyrazolo[4,3-d]pyrimidin-3-yl)-1H-pyrazol-1-yl)picolinamide] | > 7.00 | 5.70 to 6.30 | 5.70 to 6.30 | > 7.00 |  | > 7.00 | 6.30 to 7.00 |  | 
